Experimental data taken from PubChem BioAssay AID330 (DTP/NCI, 2004).
“And” between values parts separate entries of the source, which are not always exact repeats. Identical values can stand only once. Inconclusive results and toxic doses are left out. Rule for the calls: active = survival T/C of 150% or more; inactive = T/C below 125% in these data. Square brackets hold non-standard residues; d marks the D form. Peptide text beside a SMILES is read from it. * marks the point of attachment. ξ: configuration not given here. Nphe = O=C(O)CNCc1ccccc1; ξL = CC(C)CC(N)C(=O)O; Ms = CS(=O)(=O)*

System: P388 leukemia ip, CD2F1 mice, survival T/C
Assay: NCI In Vivo Anticancer Drug Screen. Data for tumor model P388 Leukemia (intraperitoneal) in CD2F1 (CDF1) mice
Details: endpoint: median survival time, higher = longer survival
Method in brief: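 Mice carrying the transplanted tumor received test compound or vehicle. Survival was recorded in each group, and the value is the treated-group measurement divided by that of the vehicle-treated control group.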

[1] = dose: 50.0 mg/kg/injection, schedule: Q01DX005 (ip), vehicle: saline with Tween-80
[2] = dose: 100.0 mg/kg/injection, schedule: Q01DX005 (ip), vehicle: saline with Tween-80
[3] = dose: 200.0 mg/kg/injection, schedule: Q01DX005 (ip), vehicle: saline with Tween-80
[4] = dose: 50.0 mg/kg/injection, schedule: Q01DX009 (ip), vehicle: saline with Tween-80
[5] = dose: 100.0 mg/kg/injection, schedule: Q01DX009 (ip), vehicle: saline with Tween-80
[6] = dose: 12.5 mg/kg/injection, schedule: Q01DX005 (ip), vehicle: saline
[7] = dose: 25.0 mg/kg/injection, schedule: Q01DX005 (ip), vehicle: saline
[8] = dose: 50.0 mg/kg/injection, schedule: Q01DX005 (ip), vehicle: saline

Measured: T/C

CC1CCC2=C(C1)c1ccc(O)cc1OC2(C)C (stereo unspecified)
inactive: dose: 50.0 mg/kg/injection, schedule: Q01DX005 (ip), vehicle: Klucel (hydroxypropylcellulose) (HPC) 100 % of control | dose: 100.0 mg/kg/injection, schedule: Q01DX005 (ip), vehicle: Klucel (hydroxypropylcellulose) (HPC) 96 % of control | dose: 200.0 mg/kg/injection, schedule: Q01DX005 (ip), vehicle: Klucel (hydroxypropylcellulose) (HPC) 93 % of control

S=C(Nc1ccccc1)NC1SNC(=Nc2ccccc2)N1c1ccccc1 (stereo unspecified)
inactive: [1] 106 % of control | [2] 95 % of control | [3] 95 % of control

O=C1c2ccccc2C(=O)c2c(-c3ccccc3)ccc(-c3ccccc3)c21
inactive: [1] 93 % of control | [2] 99 % of control | [3] 87 % of control

C(=N\Nc1nc2ccccc2s1)/c1ccc(/C=N/Nc2nc3ccccc3s2)cc1
inactive: [4] 105 % of control | [5] 105 % of control | dose: 200.0 mg/kg/injection, schedule: Q01DX009 (ip), vehicle: saline with Tween-80 102 % of control

CCOC(=O)C1CC1C1=C(C)c2cc3[n-]c(cc4nc(cc5[n-]c(cc1n2)c(C)c5CCC(=O)OC)C(CCC(=O)OC)=C4C)c(C)c3C1CC1C(=O)OCC.[Zn+2] (stereo unspecified)
inactive: [1] 95 % of control | [2] 89 % of control | [3] 89 % of control

Fc1ccc(CN2COc3c(ccc4cccnc34)C2)c(F)c1
inactive: dose: 100.0 mg/kg/injection, schedule: Q04DX003 (ip), vehicle: Klucel (hydroxypropylcellulose) (HPC) 95 % of control | dose: 200.0 mg/kg/injection, schedule: Q04DX003 (ip), vehicle: Klucel (hydroxypropylcellulose) (HPC) 112 % of control | dose: 400.0 mg/kg/injection, schedule: Q04DX003 (ip), vehicle: Klucel (hydroxypropylcellulose) (HPC) 89 % of control

CN(C)CC/C=C1/c2ccccc2C=Nc2ccc(Cl)cc21
inactive: dose: 6.25 mg/kg/injection, schedule: Q01DX009 (ip), vehicle: Klucel (hydroxypropylcellulose) (HPC) 116 % of control | dose: 12.5 mg/kg/injection, schedule: Q01DX009 (ip), vehicle: Klucel (hydroxypropylcellulose) (HPC) 108 % of control | dose: 25.0 mg/kg/injection, schedule: Q01DX009 (ip), vehicle: Klucel (hydroxypropylcellulose) (HPC) 99 % of control

COc1c(OC2OC(CO)C(O)C(O)C2O)cc2c(c1OC)-c1ccc(OC)c(=O)cc1C(NC(C)=O)CC2 (stereo unspecified)
inactive: [6] 108 % of control | [7] 106 % of control | [8] 117 % of control and 121 % of control

c1ccc2c(c1)CCc1c-2n[nH]c1-c1[nH]nc2c1CCc1ccccc1-2
inactive: dose: 60.0 mg/kg/injection, schedule: Q01DX005 (ip), vehicle: Klucel (hydroxypropylcellulose) (HPC) 99 % of control | dose: 120.0 mg/kg/injection, schedule: Q01DX005 (ip), vehicle: Klucel (hydroxypropylcellulose) (HPC) 89 % of control | dose: 240.0 mg/kg/injection, schedule: Q01DX005 (ip), vehicle: Klucel (hydroxypropylcellulose) (HPC) 88 % of control

COC(OC)C1CC=CCCC1C(=O)O (stereo unspecified)
inactive: dose: 60.0 mg/kg/injection, schedule: Q01DX005 (ip), vehicle: saline 91 % of control | dose: 120.0 mg/kg/injection, schedule: Q01DX005 (ip), vehicle: saline 107 % of control | dose: 240.0 mg/kg/injection, schedule: Q01DX005 (ip), vehicle: saline 96 % of control

Cc1nn(C(=S)S)c(C)c1N=Nc1ccc(Br)cc1
inactive: dose: 100.0 mg/kg/injection, schedule: Q04DX002 (ip), vehicle: Klucel (hydroxypropylcellulose) (HPC) 113 % of control | dose: 200.0 mg/kg/injection, schedule: Q04DX002 (ip), vehicle: Klucel (hydroxypropylcellulose) (HPC) 90 % of control | dose: 400.0 mg/kg/injection, schedule: Q04DX002 (ip), vehicle: Klucel (hydroxypropylcellulose) (HPC) 112 % of control

O=C(Nc1ccc(Cl)cc1)Nc1nnc2nc(C(C(=O)/C=C/c3ccccc3)c3nc4nnc(NC(=O)Nc5ccc(Cl)cc5)n4[nH]c3=O)c(=O)[nH]n12
inactive: dose: 60.0 mg/kg/injection, schedule: Q01DX005 (ip), vehicle: saline with Tween-80 103 % of control | dose: 120.0 mg/kg/injection, schedule: Q01DX005 (ip), vehicle: saline with Tween-80 95 % of control | dose: 240.0 mg/kg/injection, schedule: Q01DX005 (ip), vehicle: saline with Tween-80 91 % of control

O=C(O)CCc1nc(-c2ccccc2-n2cccc2)no1
inactive: [4] 96 % of control | [5] 102 % of control

CC(C)CC(NC(=O)CN(Cc1ccccc1)S(C)(=O)=O)C(=O)O (stereo unspecified) (Ms-[Nphe]-[ξL]-OH)
inactive: dose: 12.5 mg/kg/injection, schedule: Q01DX009 (ip), vehicle: other 100 % of control | dose: 25.0 mg/kg/injection, schedule: Q01DX009 (ip), vehicle: other 104 % of control | dose: 50.0 mg/kg/injection, schedule: Q01DX009 (ip), vehicle: other 114 % of control | dose: 100.0 mg/kg/injection, schedule: Q01DX009 (ip), vehicle: other 104 % of control | dose: 200.0 mg/kg/injection, schedule: Q01DX009 (ip), vehicle: other 100 % of control

CCN(CC)CCCNC(=O)c1noc2cc([N+](=O)[O-])ccc12
inactive: [6] 113 % of control | [7] 105 % of control | [8] 99 % of control
